Our source for the efficacy and chromatographic logP values is patent US11072609B2, “Method for preparing halogenated imidazopyridine derivatives” (Bayer Aktiengesellschaft, priority 2017, dated 2021).

Data set [1] deals with Myzus persicae. Put plainly: Myzus persicae - oral test. Format: in vivo. Conditions: application rate 4 ppm; after 5 days; 100% = all aphids killed. Here is the method: Myzus persicae—Oral Test Solvent: 100 parts by weight of acetone To produce a suitable active ingredient formulation, 1 part by weight of active ingredient is dissolved with the stated parts by weight of solvent and made up to the desired concentration with water. 50 μl of the active ingredient formulation are transferred into microtitre plates and made up to a final volume of 200 μl with 150 μl of IPL41 insect medium (33%+15% sugar). Subsequently, the plates are sealed with parafilm, which a mixed population of green peach aphids (Myzus persicae) within a second microtitre plate is able to puncture and imbibe the solution. After 5 days, the efficacy in % is determined. 100% means that all the aphids have been killed; 0% means that no aphids have been killed.

The test system of data set [2] is Myzus persicae. Put plainly: Myzus persicae - spray test. The data set is classed as in vivo. Particulars: Chinese cabbage leaf discs, after 5 days. As to the method:
Myzus persicae—Spray Test [table] To produce a suitable active ingredient formulation, 1 part by weight of active ingredient is dissolved with the specified parts by weight of solvent and made up to the desired concentration with water containing an emulsifier concentration of 1000 ppm. To produce further test concentrations, the formulation is diluted with emulsifier-containing water. Discs of Chinese cabbage leaves (Brassica pekinensis) infested by all stages of the green peach aphid (Myzus persicae) are sprayed with an active ingredient formulation of the desired concentration. After 5 days, the efficacy in % is determined. 100% means that all the aphids have been killed; 0% means that no aphids have been killed.

Another data set deals with Phaedon cochleariae. Nature of the data set: Phaedon cochleariae - spray test. Format: in vivo. Conditions: application rate 100 g/ha; Chinese cabbage leaf discs, larvae; after 7 days. Here is the method:
Phaedon cochleariae—Spray Test
To produce a suitable active ingredient formulation, 1 part by weight of active ingredient is dissolved with the specified parts by weight of solvent and made up to the desired concentration with water containing an emulsifier concentration of 1000 ppm. To produce further test concentrations, the formulation is diluted with emulsifier-containing water.
Discs of Chinese cabbage leaves (Brassica pekinensis) are sprayed with an active ingredient formularation of the desired concentration and, after drying, populated with larvae of the mustard beetle (Phaedon cochleariae).
After 7 days, the efficacy in % is determined. 100% means that all the beetle larvae have been killed; 0% means that no beetle larvae have been killed.

Data set [3] is described as follows: log P by HPLC on reversed-phase column (C 18), EEC Directive 79/831 Annex V.A8. Format: physicochemical. Conditions: reversed-phase C18 HPLC column; HPLC-MS, reversed-phase C 18, 55° C.; acidic or neutral range not stated. Here is the method:
The log P values are measured according to EEC Directive 79/831 Annex V.A8 by HPLC (high-performance liquid chromatography) on a reversed-phase column (C 18). Temperature: 55° C. The LC-MS determination in the acidic range is carried out at pH 2.7 using the mobile phases 0.1% aqueous formic acid and acetonitrile (contains 0.1% formic acid); linear gradient from 10% acetonitrile to 95% acetonitrile. The LC-MS determination in the neutral range is carried out at pH 7.8 using the mobile phases 0.001 molar aqueous ammonium bicarbonate solution and acetonitrile; linear gradient from 10% acetonitrile to 95% acetonitrile. Calibration is carried out using unbranched alkan-2-ones (having 3 to 16 carbon atoms) with known log P values (log P values determined on the basis of the retention times by linear interpolation between two successive alkanones).

A further data set deals with Spodoptera frugiperda. Nature of the data set: Spodoptera frugiverda - spray test. Conditions: application rate 100 g/ha; maize leaf discs, caterpillars; after 7 days. The data set is classed as in vivo. Here is the method: Spodoptera frugiverda—Spray Test [table] To produce a suitable active ingredient formulation, 1 part by weight of active ingredient is dissolved with the specified parts by weight of solvent and made up to the desired concentration with water containing an emulsifier concentration of 1000 ppm. To produce further test concentrations, the formulation is diluted with emulsifier-containing water. Leaf discs of maize (Zea mays) are sprayed with an active ingredient formulation of the desired concentration and, after drying, populated with caterpillars of the armyworm (Spodoptera frugiperda). After 7 days, the efficacy in % is determined. 100% means that all the caterpillars have been killed; 0% means that no caterpillar has been killed.

As to `CCS(=O)(=O)c1ccc(-n2cncn2)nc1-c1nc2cc(C(F)(F)F)nc(C)c2n1C` [compound 2], the efficacy amounted to 100% in the data set with Myzus persicae [1], 90% in the data set on Myzus persicae [2] (application rate 20 g/ha) and 83% in the data set on Phaedon cochleariae. Take `CCSc1ccc(Cl)nc1-c1nc2cc(C(F)(F)F)nc(I)c2n1C` [Example 1, 2-[6-chloro-3-(ethylsulfanyl)pyridin-2-yl]-4-iodo-3-methyl-6-(trifluoromethyl)-3H-imidazo[4,5-c]pyridine]: in data set [3], the chromatographic logP was 4.17.

Consider `CCSc1ccc(Br)nc1-c1nc2cc(C(F)(F)F)nc(C)c2n1C` [Example 4, 2-[6-bromo-3-(ethylsulfanyl)pyridin-2-yl]-3,4-dimethyl-6-(trifluoromethyl)-3H-imidazo[4,5-c]pyridine], for which the chromatographic logP in data set [3] came out at 3.36. Consider `CCSc1ccc(Cl)nc1-c1nc2cc(C(F)(F)F)nc(C#N)c2n1C` [Example 5, 2-[6-chloro-3-(ethylsulfanyl)pyridin-2-yl]-3-methyl-6-(trifluoromethyl)-3H-imidazo[4,5-c]pyridine-4-carbonitrile], for which the chromatographic logP in data set [3] was determined as 3.84. For `CCS(=O)(=O)c1ccc(-n2cncn2)nc1-c1nc2cc(C(F)(F)F)nc(Cl)c2n1C` [compound 3], the efficacy with Myzus persicae [1], with Myzus persicae [2] (application rate 20 g/ha), in the data set on Myzus persicae [2] (application rate 100 g/ha) and in the data set on Spodoptera frugiperda was 100% each time. Consider `CCS(=O)(=O)c1ccc(-n2cncn2)nc1-c1nc2cc(C(F)(F)F)nc(C#N)c2n1C` [Compound No. 1, 2-[3-(ethylsulfonyl)-6-(1H-1,2,4-triazol-1-yl)pyridin-2-yl]-3-methyl-6-(trifluoromethyl)-3H-imidazo[4,5-c]pyridine-4-carbonitrile], for which the efficacy was determined as 100% with Myzus persicae [1] and 83% in the data set on Phaedon cochleariae. In data set [3], `CCSc1ccc(Br)nc1-c1nc2cc(C(F)(F)F)nc(C#N)c2n1C` [Example 6, 2-[6-bromo-3-(ethylsulfanyl)pyridin-2-yl]-3-methyl-6-(trifluoromethyl)-3H-imidazo[4,5-c]pyridine-4-carbonitrile] displayed a chromatographic logP of 3.87. Same read-out and setting: in the case of `CCSc1ccc(Br)nc1-c1nc2cc(C(F)(F)F)nc(Cl)c2n1C` [Example 7, 2-[6-bromo-3-(ethylsulfanyl)pyridin-2-yl]-4-chloro-3-methyl-6-(trifluoromethyl)-3H-imidazo[4,5-c]pyridine] it was 4.18; in that of `CCSc1ccc(Cl)nc1-c1nc2cc(C(F)(F)F)nc(C)c2n1C` [Example 3, 2-[6-chloro-3-(ethylsulfanyl)pyridin-2-yl]-3,4-dimethyl-6-(trifluoromethyl)-3H-imidazo[4,5-c]pyridine], 3.23; in that of `CCSc1ccc(Br)nc1-c1nc2cc(C(F)(F)F)nc(I)c2n1C` [Example 2, 2-[6-bromo-3-(ethylsulfanyl)pyridin-2-yl]-4-iodo-3-methyl-6-(trifluoromethyl)-3H-imidazo[4,5-c]pyridine], 4.34.
